Where a name gives a salt, the structure may show the parent alone. Read-outs that look alike come from different tables or passages of the source.
Key:
[1] = Cytotoxicity to VERO cells; assay type: cell-based, African green monkey (Cercopithecus Aethiops); conditions: African green monkey (Cercopithecus aethiops), IC50 (μM) Cytotoxicity VERO cells
Method: (§1) In vitro antiprotozoal activities, see Ismail, M. A., et al., J. Med. Chem. 46, 4761-4769 (2003), and cytotoxicity were measured following established protocols, see Balz, T., et al., EMBO J., 4, 1273-1277 (1985); Räz. B., et al., Acta Trop., 68:139-147 (1997); and Sperandeo, N. R. et al., Chem. Biochem., 4, 69-73 (2003). […] Other positive controls employed were melarsoprol (against T. brucei), chloroquine, and artemisinin (against P. falciparum), and podophyllotoxin (against VERO cells).

[2] = system: VERO cells; experiment: Cytotoxicity to VERO cells; assay type: cell-based, African green monkey (Cercopithecus Aethiops); conditions: for IC50: Chlorocebus sabaeus, Vero, read-out: IC50 value against VERO cells
Method: as §1

[3] = system: Trypanosoma brucei brucei; experiment: In vitro antiprotozoal activity against Trypanosoma brucei brucei; assay type: cell-based; conditions: Trypanosoma brucei
Method: as §1

[4] = system: Plasmodium falciparum; experiment: In vitro antiprotozoal activity against Plasmodium falciparum; assay type: cell-based; conditions: for IC50: Plasmodium falciparum
Method: as §1

[5] = Table 1, read-out: IC50 (μM) Trypanosoma brucei brucei
[6] = Table 1, read-out: IC50 (μM) Plasmodium falciparum
[7] = read-out: antiplasmodial IC50 values (P. falciparum)
[8] = read-out: IC50 values against T. brucei brucei

| Structure (SMILES) | IC50 [1] [µM] | toxicity (VERO cells) in words [2] | IC50 [2] [nM] | IC50 [3, 5] [µM] | selectivities against P. falciparum over T. brucei brucei [4] [fold] | IC50 [4, 6] [µM] | IC50 [4, 7] [µM] | melting point | IC50 [3, 8] [µM] |
| --- | --- | --- | --- | --- | --- | --- | --- | --- | --- |
| CC(C)NC(=N)c1ccc(-c2cc(-c3ccc(C(=N)NC(C)C)cc3)on2)cc1.Cl.Cl [Compound 4, 3,5-Bis[4-(N-isopropyl)amidinophenyl]isoxazole dihydrochloride] | 176 | very nontoxic | > 100000 | 0.196 | 30 | 0.0066 | < 0.008 | – | – |
| COc1cc(C(=N)N)ccc1-c1cc(-c2ccc(C(=N)N)cc2)no1 [Compound 8, 5-(4-Amidino-2-methoxyphenyl)-3-(4-amidinophenyl)isoxazole dihydrochloride] | 122 | – | > 100000 | 0.0106 | – | 0.006 | < 0.008 | – | – |
| COc1cc(C(=N)N)ccc1-c1cc(-c2ccc(C(=N)N)cc2)on1.Cl.Cl [Compound 11, 3-(4-Amidino-2-methoxyphenyl)-5-(4-amidinophenyl)isoxazole dihydrochloride] | 92.6 | – | > 100000 | 0.0164 | – | 0.0663 | – | 335 to 337 °C (dec.) | – |
| COc1cc(C(=N)N)ccc1-c1cc(-c2ccc(C(=N)N)cc2OC)on1 [Compound 12, 3,5-Bis(4-amidino-2-methoxyphenyl)isoxazole dihydrochloride] | 84.8 | – | > 100000 | 0.013 | – | 0.0061 | < 0.008 | – | – |
| CC(C)NC(=N)c1ccc(-c2cc(-c3cccc(C(=N)NC(C)C)c3)no2)cc1.Cl.Cl [Compound 14, 3-[3-(N-Isopropyl)amidinophenyl]-5-[4-(N-isopropyl)amidinophenyl]-isoxazole dihydrochloride] | 187 | very nontoxic | > 100000 | 0.488 | 45 | 0.0106 | 0.008 to 0.03 | > 350 °C | – |
| COc1cc(C(=N)N)ccc1-c1cc(-c2cccc(C(=N)N)c2)no1.Cl.Cl [Compound 18, 5-(4-Amidino-2-methoxyphenyl)-3-(3-amidinophenyl)isoxazole dihydrochloride] | 177 | – | > 100000 | 0.0065 | – | 0.0035 | – | 241 to 246 °C | 0.0065 |
| Cl.Cl.N=C(N)c1ccc(-c2cc(-c3cc(C(=N)N)ccc3[N+](=O)[O-])no2)cc1 [Compound 19, 3-(5-Amidino-2-nitrophenyl)-5-(4-amidinophenyl)isoxazole dihydrochloride] | 5.07 | quite toxic | – | 0.0512 | – | 0.0021 | – | 238 to 240 °C | – |
| COc1ccc(C(=N)N)cc1-c1cc(-c2ccc(C(=N)N)cc2)on1.Cl.Cl [Compound 21, 3-(5-Amidino-2-methoxyphenyl)-5-(4-amidinophenyl)isoxazole dihydrochloride] | 213 | – | > 100000 | 0.0118 | – | 0.0026 | – | 272 to 275 °C | – |
| CC(C)NC(=N)c1ccc(-c2cc(-c3cccc(C(=N)NC(C)C)c3)on2)cc1.Cl.Cl [Compound 23, 3-[4-(N-Isopropyl)amidinophenyl]-5-[3-(N-isopropyl)amidinophenyl]-isoxazole dihydrochloride] | 186 | very nontoxic | > 100000 | 0.316 | – | 0.0347 | – | 340 to 343 °C (dec.) | – |
| Cl.Cl.N=C(N)c1cccc(-c2cc(-c3ccc(C(=N)N)cc3[N+](=O)[O-])no2)c1 [Compound 27, 3-(4-Amidino-2-nitrophenyl)-5-(3-amidinophenyl)isoxazole dihydrochloride] | 206 | low toxicity | > 100000 | 0.0194 | – | 0.0304 | – | 236 °C (dec.) | – |
| COc1cc(C(=N)N)ccc1-c1cc(-c2cccc(C(=N)N)c2)on1.Cl.Cl [Compound 29, 3-(4-Amidino-2-methoxyphenyl)-5-(3-amidinophenyl)isoxazole dihydrochloride] | 136 | – | > 100000 | 0.0059 | – | 0.0089 | 0.008 to 0.03 | 288 °C (dec.) | 0.0035 to 0.009 |
| COc1ccc(C(=N)N)cc1-c1cc(-c2ccc(C(=N)N)cc2[N+](=O)[O-])no1.Cl.Cl [Compound 30, 5-(5-Amidino-2-methoxyphenyl)-3-(4-amidino-2-nitrophenyl)isoxazole dihydrochloride] | 116 | – | > 100000 | 0.0342 | – | 0.0195 | 0.008 to 0.03 | 260 °C (dec.) | – |
| COc1cc(C(=N)N)ccc1-c1cc(-c2cc(C(=N)N)ccc2OC)on1.Cl.Cl [Compound 31, 3-(4-Amidino-2-methoxyphenyl)-5-(5-amidino-2-methoxyphenyl)isoxazole dihydrochloride] | 191 | – | > 100000 | 0.0057 | – | 0.0297 | 0.008 to 0.03 | 330 °C (dec.) | 0.0035 to 0.009 |
| Cl.Cl.N=C(N)c1cccc(-c2cc(-c3cccc(C(=N)N)c3)on2)c1 [Compound 32, 3,5-Bis(3-amidinophenyl)isoxazole dihydrochloride] | 153 | low toxicity | > 100000 | 0.029 | – | 0.0092 | 0.008 to 0.03 | 365 to 367 °C | 0.029 |
| CC(C)NC(=N)c1cccc(-c2cc(-c3cccc(C(=N)NC(C)C)c3)on2)c1.Cl.Cl [Compound 33, 3,5-Bis[3-(N-isopropyl)amidinophenyl]isoxazole dihydrochloride] | 180 | very nontoxic | > 100000 | 4.98 | – | 0.0431 | – | 260 °C (dec.) | – |
| Cl.Cl.N=C(N)c1cccc(-c2cc(-c3cc(C(=N)N)ccc3Cl)on2)c1 [Compound 36, 5-(5-Amidino-2-chlorophenyl)-3-(3-amidinophenyl)isoxazole dihydrochloride] | 109 | low toxicity | > 100000 | 0.0251 | – | 0.0163 | 0.008 to 0.03 | 347 °C (dec.) | – |
| COc1ccc(C(=N)N)cc1-c1cc(-c2cccc(C(=N)N)c2)no1.Cl.Cl [Compound 37, 5-(5-Amidino-2-methoxyphenyl)-3-(3-amidinophenyl)isoxazole dihydrochloride] | 124 | – | > 100000 | 0.0074 | – | 0.0192 | 0.008 to 0.03 | 240 °C (dec.) | 0.0035 to 0.009 |
| Cl.Cl.N=C(N)c1cccc(-c2cc(-c3cc(C(=N)N)ccc3[N+](=O)[O-])no2)c1 [Compound 38, 3-(5-Amidino-2-nitrophenyl)-5-(3-amidinophenyl)isoxazole dihydrochloride] | 177 | low toxicity | > 100000 | 0.085 | – | 0.104 | – | 220 °C (dec.) | – |

From US7951827B2, “Synthesis and antiprotozoal activity of dicationic 3,5-diphenylisoxazoles” (The University of North Carolina at Chapel Hill, priority 2005, dated 2011)
